Test system: PDC KRAS tumor spheroids with HUVEC/MSC, viability
Assay: Anticancer human tumor 349418-098-R-PDC patient-derived lung adenocarcinoma cell line growth inhibition [KRAS2]
Settings: for IC50: curve of first compound; for viability, T/C: stronger effect = lower value; active = viability on the fitted dose curve at most 10% of control; inactive = the rest
Source text: Multicellular complex tumor spheroid response to RAS pathway inhibitors in combination with a targeted agents in patient-derived cell lines with oncogenic KRAS variants from multiple cancer types
A high-throughput screen of multi-cell type tumor spheroids was designed to identify active combinations of targeted small molecules and KRAS pathway inhibitors. Complex spheroids include a stromal component modeled by human endothelial cells (HUVEC) and fibroblasts modeled by human mesenchymal stem cells (MSCs). The concentration ranges selected for each drug and investigational agent were based upon clinically achievable concentrations if the clinical Cmax of the agent was known.
Compounds. The drugs and investigational agents: BI-3406 (NSC825286), BAY-293 (NSC824723), batoprotafib (TNO155; NSC825523), sotorasib (AMG 510; NSC818433), MRTX1257 (NSC819558), elimusertib (BAY 1895344; NSC800525), molibresib (GSK525762; NSC774829), temuterkib (LY3214996; NSC803410), venetoclax (NSC766270), alisertib (NSC759677), olaparib (NSC753686), talazoparib (NSC767125), erdafitinib (NSC781556), ipatasertib (NSC767898), cabozantinib (NSC761068), nintedanib (NSC756659), abemaciclib (NSC768073), docetaxel (NSC628503), trametinib (NSC758246), and sapanisertib (NSC764658) were obtained from the National Cancer Institute (NCI) Developmental Therapeutics Program Chemical Repository. The FDA-approved anticancer drug set is available from the Developmental Therapeutics Program. […] The stock solutions were prepared in dimethyl sulfoxide (DMSO, Sigma-Aldrich, St. Louis, MO, cat. D2650) at 800-fold the tested concentration and stored at -70 degrees C prior to their use. All drugs and investigational agents were tested over a range starting from a high concentration at or near the clinical Cmax and decreasing in half-log increments. If the clinical Cmax for an agent had not been determined, the highest concentration tested was 10 microM.
Cell Culture. All cells were maintained in an incubator at 37 degrees C and 5% CO2 with 95% humidity. The PDC lines were cultured according to standard operating procedures established by the NCI PDMR (https://pdmr.cancer.gov/sops/default.htm). Briefly, all PDCs were thawed and cultured in Matrigel-coated flasks prepared with a working solution of 1X Ham's F-12 nutrient mix, without supplementation (Invitrogen, Waltham, MA, cat. 11765054), 100 U/mL penicillin-streptomycin (Invitrogen, cat. 15140122), and 2.5% Matrigel (Corning Inc., Corning, NY, cat. 354248) for the first three passages. All PDCs were cultured in complete DMEM/F-12 media containing advanced DMEM/F-12 (Invitrogen, cat. 12634028), 4.9% defined fetal bovine serum, heat inactivated (HyClone Laboratories Inc., Logan, UT, cat. SH30070.03HI), 389 ng/mL hydrocortisone (Sigma-Aldrich, cat. H4001), 9.7 ng/mL human EGF recombinant protein (Invitrogen, cat. PHG0313), 23.4 microg/mL adenine (Sigma-Aldrich, cat. A2786), 97.3 U/mL penicillin-streptomycin (Invitrogen, cat. 15140122), 1.9 mM L-glutamine (Invitrogen, cat. 25030081), and 9.7 microM Y-27632 dihydrochloride (Tocris Bioscience, Bristol, United Kingdom, cat. 1254). The PDCs were cultured in complete DMEM/F12 media without 9.7 microM Y-27632 dihydrochloride for at least two passages prior to the screen. The established cell line HOP-62 was cultured in RPMI 1640 medium, HEPES (Invitrogen, cat. 22400105) with 10% defined fetal bovine serum (HyClone Laboratories Inc., cat. SH30070.03) and 2 mM L-glutamine (Invitrogen, cat. 25030081). The pooled donor HUVEC were cultured in endothelial cell growth medium 2 (PromoCell, Heidelberg, Germany, cat. C-22011) and the hMSC were cultured in mesenchymal stem cell growth medium 2 (PromoCell, cat. C-28009). For all experiments, HUVEC and hMSC were used at passages </=5, while the malignant cell lines were used at passages </=15. […]

[1] = second compound 0.0316 µM, first compound 0.01 µM
[2] = second compound 0.0316 µM, first compound 0.0316 µM
[3] = second compound 0.0316 µM, first compound 0.1 µM
[4] = second compound 0.0316 µM, first compound 0.316 µM
[5] = second compound 0.0316 µM, first compound 1 µM
[6] = second compound 0.0316 µM, first compound 3.16 µM
[7] = second compound 0.1 µM, first compound 0.01 µM
[8] = second compound 0.1 µM, first compound 0.0316 µM
[9] = second compound 0.1 µM, first compound 0.1 µM
[10] = second compound 0.1 µM, first compound 0.316 µM
[11] = second compound 0.1 µM, first compound 1 µM
[12] = second compound 0.1 µM, first compound 3.16 µM
[13] = second compound 0.316 µM, first compound 0.01 µM
[14] = second compound 0.316 µM, first compound 0.0316 µM
[15] = second compound 0.316 µM, first compound 0.1 µM
[16] = second compound 0.316 µM, first compound 0.316 µM
[17] = second compound 0.316 µM, first compound 1 µM
[18] = second compound 0.316 µM, first compound 3.16 µM
[19] = second compound 1 µM, first compound 0.01 µM
[20] = second compound 1 µM, first compound 0.0316 µM
[21] = second compound 1 µM, first compound 0.1 µM
[22] = second compound 1 µM, first compound 0.316 µM
[23] = second compound 1 µM, first compound 1 µM
[24] = second compound 1 µM, first compound 3.16 µM
[25] = second compound 3.16 µM, first compound 0.01 µM
[26] = second compound 3.16 µM, first compound 0.0316 µM
[27] = second compound 3.16 µM, first compound 0.1 µM
[28] = second compound 3.16 µM, first compound 0.316 µM
[29] = second compound 3.16 µM, first compound 1 µM
[30] = second compound 3.16 µM, first compound 3.16 µM
[31] = second compound 0.0316 µM, first compound 10 µM
[32] = second compound 0.1 µM, first compound 10 µM
[33] = second compound 0.316 µM, first compound 10 µM
[34] = second compound 1 µM, first compound 10 µM
[35] = second compound 3.16 µM, first compound 10 µM
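Note: spheroids exposed to compounds for seven days before readout.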

CC(=O)OC12COC1CC(O)C1(C)C(=O)C(O)C3=C(C)C(OC(=O)C(O)C(NC(=O)OC(C)(C)C)c4ccccc4)CC(O)(C(OC(=O)c4ccccc4)C21)C3(C)C (stereo not given) + C=CC(=O)N1CCN(c2nc(OCC3CCCN3C)nc3c2CCN(c2cccc4cccc(C)c24)C3)CC1CC#N
< 10 nM: IC50 (second compound 0.0316 µM) | IC50 (second compound 0.1 µM) | IC50 (second compound 0.316 µM) | IC50 (second compound 1 µM) | IC50 (second compound 3.16 µM)
inactive: viability, T/C [1] 12% | viability, T/C [2] 20% | viability, T/C [3] 16.5% | viability, T/C [4] 17.8% | viability, T/C [5] 24.9% | viability, T/C [6] 23.5% | viability, T/C [7] 13.5% | viability, T/C [8] 12% | viability, T/C [9] 15.2% | viability, T/C [10] 17.2% | viability, T/C [11] 21.1% | viability, T/C [12] 18% | viability, T/C [13] 10.8% | viability, T/C [14] 14.2% | viability, T/C [15] 12.8% | viability, T/C [16] 14.6% | viability, T/C [17] 18.3% | viability, T/C [18] 18% | viability, T/C [19] 9.34% | viability, T/C [20] 12.5% | viability, T/C [21] 12.2% | viability, T/C [22] 11.6% | viability, T/C [23] 14.8% | viability, T/C [24] 17.5% | viability, T/C [25] 12.8% | viability, T/C [26] 14.4% | viability, T/C [27] 19.9% | viability, T/C [28] 20% | viability, T/C [29] 19.5% | viability, T/C [30] 24.3%

CN(C)C/C=C/C(=O)Nc1cc2c(Nc3ccc(F)c(Cl)c3)ncnc2cc1O[C@H]1CCOC1 + C=CC(=O)N1CCN(c2nc(OCC3CCCN3C)nc3c2CCN(c2cccc4cccc(C)c24)C3)CC1CC#N
inactive: viability, T/C (second compound 0.0316 µM, first compound 0.000316 µM) 102% | viability, T/C (second compound 0.0316 µM, first compound 0.001 µM) 101% | viability, T/C (second compound 0.0316 µM, first compound 0.00316 µM) 85% | viability, T/C [1] 105% | viability, T/C [2] 102% | viability, T/C [3] 87.2% | viability, T/C (second compound 0.1 µM, first compound 0.000316 µM) 101% | viability, T/C (second compound 0.1 µM, first compound 0.001 µM) 109% | viability, T/C (second compound 0.1 µM, first compound 0.00316 µM) 86.3% | viability, T/C [7] 92.9% | viability, T/C [8] 83.8% | viability, T/C [9] 83.9% | viability, T/C (second compound 0.316 µM, first compound 0.000316 µM) 99.9% | viability, T/C (second compound 0.316 µM, first compound 0.001 µM) 99.8% | viability, T/C (second compound 0.316 µM, first compound 0.00316 µM) 94.6% | viability, T/C [13] 94.9% | viability, T/C [14] 82.1% | viability, T/C [15] 84.4% | viability, T/C (second compound 1 µM, first compound 0.000316 µM) 84.5% | viability, T/C (second compound 1 µM, first compound 0.001 µM) 75.2% | viability, T/C (second compound 1 µM, first compound 0.00316 µM) 65.9% | viability, T/C [19] 69.4% | viability, T/C [20] 77.4% | viability, T/C [21] 58.3%
< 0.316 nM: IC50 (second compound 3.16 µM)
> 100 nM: IC50 (second compound 0.0316 µM) | IC50 (second compound 0.1 µM) | IC50 (second compound 0.316 µM) | IC50 (second compound 1 µM)
active: viability, T/C (second compound 3.16 µM, first compound 0.000316 µM) 0.17% | viability, T/C (second compound 3.16 µM, first compound 0.001 µM) 0.19% | viability, T/C (second compound 3.16 µM, first compound 0.00316 µM) 0.17% | viability, T/C [25] 0.17% | viability, T/C [26] 1.41% | viability, T/C [27] 0.2%

COC(=O)c1ccc2c(C(=Nc3ccc(N(C)C(=O)CN4CCN(C)CC4)cc3)c3ccccc3)c(O)[nH]c2c1 + C=CC(=O)N1CCN(c2nc(OCC3CCCN3C)nc3c2CCN(c2cccc4cccc(C)c24)C3)CC1CC#N
< 31.6 nM: IC50 (second compound 1 µM) | IC50 (second compound 3.16 µM)
active: viability, T/C [33] 6.76% | viability, T/C [24] 0.91% | viability, T/C [34] 0.96% | viability, T/C [26] 0.1% | viability, T/C [27] 0.08% | viability, T/C [28] 0.07% | viability, T/C [29] 0.05% | viability, T/C [30] 0.03% | viability, T/C [35] 0.05%
inactive: viability, T/C [2] 65.9% | viability, T/C [3] 78.3% | viability, T/C [4] 58.5% | viability, T/C [5] 28.9% | viability, T/C [6] 15.6% | viability, T/C [31] 15% | viability, T/C [8] 88.9% | viability, T/C [9] 87.6% | viability, T/C [10] 46.3% | viability, T/C [11] 25.4% | viability, T/C [12] 9.49% | viability, T/C [32] 9.82% | viability, T/C [14] 75.2% | viability, T/C [15] 51% | viability, T/C [16] 42.3% | viability, T/C [17] 30.4% | viability, T/C [18] 10.6% | viability, T/C [20] 44.8% | viability, T/C [21] 24.2% | viability, T/C [22] 27.8% | viability, T/C [23] 23.8%
154 nM: IC50 (second compound 0.316 µM)
456 nM: IC50 (second compound 0.0316 µM)
320 nM: IC50 (second compound 0.1 µM)

O=C(c1cc(Cc2n[nH]c(=O)c3ccccc23)ccc1F)N1CCN(C(=O)C2CC2)CC1 + C=CC(=O)N1CCN(c2nc(OCC3CCCN3C)nc3c2CCN(c2cccc4cccc(C)c24)C3)CC1CC#N
inactive: viability, T/C [2] 86.9% | viability, T/C [3] 75.7% | viability, T/C [4] 29.1% | viability, T/C [5] 21.3% | viability, T/C [6] 17.5% | viability, T/C [31] 15.6% | viability, T/C [8] 81.2% | viability, T/C [9] 50.7% | viability, T/C [10] 50.7% | viability, T/C [11] 24.5% | viability, T/C [12] 20.9% | viability, T/C [32] 17.5% | viability, T/C [14] 91.6% | viability, T/C [15] 88% | viability, T/C [16] 68.2% | viability, T/C [17] 62.1% | viability, T/C [18] 23.1% | viability, T/C [33] 18.9% | viability, T/C [20] 51.9% | viability, T/C [21] 55.5% | viability, T/C [22] 52.5% | viability, T/C [23] 34.6% | viability, T/C [24] 26.7% | viability, T/C [34] 20.6%
189 nM: IC50 (second compound 0.0316 µM)
353 nM: IC50 (second compound 1 µM)
active: viability, T/C [26] 0.11% | viability, T/C [27] 0.12% | viability, T/C [28] 0.11% | viability, T/C [29] 0.11% | viability, T/C [30] 0.12% | viability, T/C [35] 1.16%
168 nM: IC50 (second compound 0.1 µM)
1190 nM: IC50 (second compound 0.316 µM)
< 31.6 nM: IC50 (second compound 3.16 µM)
